Key:
[1] = system: EGF-generated neurospheres; experiment: Effect of growth factors on neurosphere differentiation, immunocytochemistry (Example 8); type: cell-based, mouse; conditions: 20 ng/ml
Method: Six to 8 days after the first passage, the neurospheres were removed and centrifuged at 400 r.p.m. The EGF-containing supernatant was removed and the pellet suspended in EGF-free complete medium containing 1% FBS. Neurospheres (approximately 0.5-1.0×10^6 cells/well) were plated on poly-L-ornithine-coated (15 μg/ml) glass coverslips in 24 well Nuclon (1.0 ml/well) culture dishes. After 24 hours in culture, the coverslips were transferred to 12 well (Costar) culture dishes containing complete medium containing 0.5% FBS. The medium was changed every 4-7 days. This differentiation procedure is referred to as the “Rapid Differentiation Paradigm” or RDP.
Six to 8 days after the first passage, the neurospheres were removed and centrifuged at 400 r.p.m. The EGF-containing media was removed and the pellet was suspended in EGF-free complete medium containing 1% FBS. The neurospheres were mechanically dissociated into single cells with a fire-polished Pasteur pipette and centrifuged at 800 r.p.m. for 5 minutes. Between 0.5×10^6 and 1.0×10^6 cells were plated on poly-L-ornithine-coated (15 μg/ml) glass coverslips in 24 well Nuclon (1.0 ml/well) culture dishes. The EGF-free culture medium containing 1% FBS was changed every 4-7 days.
Neurospheres were washed free of EGF by serial transfers through changes of EGF-free medium. A single neurosphere was plated onto poly-L-ornithine-coated (15 μg/ml) glass coverslips in a 24-well plate. The culture medium used was complete medium with or without I % FBS. The medium was changed every 4-7 days.
Neurospheres were washed free of EGF by serial transfers through changes of EGF-free medium. A single neurosphere was mechanically dissociated in a 0.5 ml Eppendorf centrifuge tube and all the cells were plated onto a 35 mm culture dish. Complete medium was used with or without 1% FBS.
The effects of CNTF, FGF-2, BDNF, and retinoic acid on neurosphere differentiation were tested using the differentiation paradigms set forth in Example 7.
The effect of CNTF was assayed in paradigms 1 and 3. For both paradigms, CNTF was added either at the beginning of the experiment at a concentration of 10 ng/ml or daily at a concentration of 1 ng/ml.
Three different antibodies directed against 04, galactocerebroside (GalC) and MBP were used to study the effect of CNTF on the oligodendrocytes of paradigm 1. CNTF had no effect on the number of 04(+) cells, but there was an increase in the number of GalC(+) and MBP(+) cells compared with the control. Thus it appears that CNTF plays a role in the maturation of oligodendrocytes.
The effect of FGF-2 was tested using paradigms 2 and 4. In paradigm 2, 20 ng/ml of FGF-2 was added at the beginning of the experiment and cells were stained 7 days later. FGF-2 increased the number of GFAP(+) cells and the number of NSE(+) cells.
In paradigm 4, 20 ng/ml of FGF-2 was added at the beginning of the experiment and assayed 7-10 days later. […] It induced two different cell types to divide, neuroblasts and bipotential progenitor cells. The neuroblast produced, on average, 6 neurons while the bipotential cell produced approximately 6 neurons and a number of astrocytes.

Striatal cells (E14) = experiment: FGF-2 priming of low-density striatal cells before EGF (Example 8); type: cell-based, mouse; conditions: primed with 20 ng/ml FGF-2 for 11 DIV, then 20 ng/ml EGF 4-5 DIV; 2500 cell/cm^2
Method: Striatal cells (E14, 2500 cell/cm^2) were plated in the absence or presence of 20 ng/ml of FGF-2. After 11 DIV, cultures were washed and medium containing 20 ng/ml of EGF was added. After 4-5 DIV, in cultures that were primed with FGF-2, greater than 70% of the wells examined contained clusters of proliferating cells that developed into colonies with the morphologic and antigenic properties of the EGF-generated cells.

[2] = paradigm 2, stained 7 days later

bFGF: basic fibroblast growth factor, recombinant human (R & D Systems)
number of GFAP(+) cells [1, 2]: increased
number of NSE(+) cells [1, 2]: increased
neurons produced per bipotential cell ([1]; paradigm 4): approximately 6 neurons
neurons produced per neuroblast, on average ([1]; paradigm 4): 6 neurons
proliferation of neural stem cell progeny generated by the EGF-responsive stem cell ([1]; paradigm 4, 7-10 days): induced the proliferation
wells containing clusters of proliferating cells (Striatal cells (E14)): greater than 70%

Reference: US6497872B1, “Neural transplantation using proliferated multipotent neural stem cells and their progeny” (NeuroSpheres Holdings Ltd., priority 1991, dated 2002)
